Results reported in paper PMC4154654 (PLoS Neglected Tropical Diseases, 2014).
“And” between values parts separate entries of the source, which are not always exact repeats. Identical values can stand only once.

Columns and labels:
CFTR Cl− channel [1] = biological target: T1, CFTR Cl− channel (Homo sapiens, UniProt P13569); test: Apical Cl− current analysis of CFTR Cl− channel activity in basolaterally permeabilized T84 cells; assay type: cell-based
CFTR Cl− channel [2] = biological target: T1, CFTR Cl− channel; test: Apical Cl− current analysis of CFTR Cl− channel activity in Calu-3 cells; assay type: cell-based; settings: CPT-cAMP
[3] = system: intracellular cAMP levels in T84 cells; test: Intracellular cAMP measurement (cAMP immunoassay) in T84 cells; assay type: cell-based, human; settings: 200 µM, 1 h, basal and forskolin-stimulated (20 µM) conditions
Experimental: Intracellular cAMP levels in T84 cells were measured using cAMP immunoassays (R&D Systems, Minneapolis, Minnesota, USA). T84 cells were seeded on 24-well plates at a density of 10^6 cells/well and grown for 24 h in a humidified 5% CO2/[…] incubator at 37°C. […] Thereafter, cells were lysed with cell lysis buffer and level of intracellular cAMP was measured according to the manufacturer's instructions.
Data are expressed as means ± S.E.M. NS, non-statistical difference (n = 3).

Na+-K+ ATPase = Na+-K+ ATPase activity (ouabain-sensitive short-circuit current) in T84 cells; assay type: cell-based, human; settings: pretreatment 200 µM
Experimental: After stabilization of the amphotericin B-induced rise in Isc, ouabain (1 mM) was added into the basolateral solution and the values of ouabain-sensitive current were used to represent the activity of Na^+-K^+ ATPases.
In this method, apical membrane was permeabilized by amphotericin B (250 µg/ml) and a K^+ gradient ([K^+]apical>[K^+]basolateral) was established using asymmetrical K^+ buffers in the presence of ouabain in basolateral solutions (to prevent current generated by Na^+-K^+ ATPases) (Fig. 5A, inset). The basolateral K^+ current elicited by an addition of cell-permeable cAMP (e.g. CPT-cAMP) would, therefore, reflect the activity of cAMP-activated K^+ channels located in the basolateral membrane of T84 cells (i.e. KCNQ1/KCNE3 K^+ channels). […] In this protocol, intracellular Na^+ loading by amphotericin B-induced permeabilization of apical membrane stimulated Na^+-K^+ ATPase activity, resulting in an increase in Isc (Fig. 5B, inset). […]
Na^+-K^+ ATPase activity was estimated from values of ouabain-sensitive short-circuit current, which was induced by intracellular Na^+ loading following amphotericin B (250 µg/ml)-induced apical membrane permeabilization. […] Summary of data is expressed as means of ouabain-sensitive short-circuit current ± S.E.M. (n = 6–8).

[4] = biological target: T2, Na+-K+-Cl− cotransporter (NKCC1) (Homo sapiens, UniProt P55011); test: Thallium (Tl+) influx-based fluorescent assay of NKCC1 activity in T84 cells; assay type: cell-based
T2 sequence (P55011 1-1212): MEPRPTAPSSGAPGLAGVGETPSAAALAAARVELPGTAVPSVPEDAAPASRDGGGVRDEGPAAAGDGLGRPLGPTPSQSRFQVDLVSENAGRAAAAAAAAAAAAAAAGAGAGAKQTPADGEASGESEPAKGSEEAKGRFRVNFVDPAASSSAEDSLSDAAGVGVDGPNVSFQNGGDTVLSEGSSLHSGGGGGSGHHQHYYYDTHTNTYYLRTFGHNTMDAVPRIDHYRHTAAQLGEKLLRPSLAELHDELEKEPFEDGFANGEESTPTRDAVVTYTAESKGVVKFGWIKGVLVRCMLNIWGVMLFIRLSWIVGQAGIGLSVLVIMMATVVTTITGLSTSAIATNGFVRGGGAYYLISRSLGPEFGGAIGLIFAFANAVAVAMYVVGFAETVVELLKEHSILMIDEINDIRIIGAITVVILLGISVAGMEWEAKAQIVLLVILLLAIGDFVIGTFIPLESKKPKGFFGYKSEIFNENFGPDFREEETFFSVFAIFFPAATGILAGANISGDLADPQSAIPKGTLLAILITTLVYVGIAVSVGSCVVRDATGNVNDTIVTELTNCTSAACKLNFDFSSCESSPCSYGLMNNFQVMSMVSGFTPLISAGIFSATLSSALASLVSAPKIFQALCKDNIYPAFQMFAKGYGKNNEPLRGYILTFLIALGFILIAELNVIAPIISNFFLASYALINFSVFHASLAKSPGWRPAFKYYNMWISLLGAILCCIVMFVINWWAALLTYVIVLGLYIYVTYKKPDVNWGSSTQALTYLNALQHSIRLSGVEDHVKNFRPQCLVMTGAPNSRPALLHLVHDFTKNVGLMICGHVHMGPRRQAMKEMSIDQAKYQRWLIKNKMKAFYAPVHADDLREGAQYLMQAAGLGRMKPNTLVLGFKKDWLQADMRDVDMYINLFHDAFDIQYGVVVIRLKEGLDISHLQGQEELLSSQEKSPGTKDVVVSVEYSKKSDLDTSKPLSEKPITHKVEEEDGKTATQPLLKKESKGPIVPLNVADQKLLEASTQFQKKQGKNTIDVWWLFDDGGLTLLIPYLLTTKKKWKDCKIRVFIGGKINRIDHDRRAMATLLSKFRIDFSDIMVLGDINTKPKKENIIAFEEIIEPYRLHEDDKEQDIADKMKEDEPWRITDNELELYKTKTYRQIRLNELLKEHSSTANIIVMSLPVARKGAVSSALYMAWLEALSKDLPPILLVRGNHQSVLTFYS

[5] = system: phosphorylated Ca2+/calmodulin-dependent protein kinase II (CaMKII); test: Immunoblot analysis of ATP-induced CaMKII phosphorylation in T84 cells; assay type: cell-based, human; settings: 20 min, ATP 100 µM plus diclofenac 20 µM
Experimental: Proteins were extracted using lysis buffers containing (pH 7.4) 1% Triton X-100, 50 mM Tris-HCl, 150 mM NaCl, 1 mM EDTA, 1 mM NaF, 1 mM Na3VO4, 1 mM PMSF and protease inhibitor (PI) cocktail. Protein concentration was determined using a Lowry method. Equal amounts of proteins were loaded on sodium dodecyl sulfate polyacrylamide gel electrophoresis and transferred to a nitrocellulose membrane. […] The secondary antibodies were horseradish peroxidase-conjugated anti-rabbit IgG antibodies. The immunoblot was visualized using a chemiluminescence detection method.

[6] = biological target: Ca2+-activated basolateral K+ channels (KCa3.1) (Homo sapiens, UniProt O15554); test: Basolateral K+ current analysis of ATP-stimulated Ca2+-activated basolateral K+ channels in T84 cells; assay type: cell-based; settings: BaCl2 5 mM, ATP 100 µM
Experimental: High K^+ apical solution contained (pH 7.3) 142.5 mM K-gluconate, 1.25 mM CaCl2, 0.40 mM MgSO4, 0.43 mM […], 0.35 mM Na2HPO4, 10 mM Na-HEPES and 5.6 mM glucose. In low K^+ basolateral solution, concentration of K-gluconate was reduced to 5.4 mM and 136.9 mM N-methyl-glucamine was added. Before basolateral K^+ current measurements, apical membrane of T84 cells was permeabilized by amphotericin B (250 µg/ml) and ouabain (1 mM) was added into basolateral solution to prevent current contributed by Na^+-K^+ ATPase.

[7] = system: cholera toxin (CT)-induced Cl− secretion in T84 cells; test: cells; assay type: cell-based; settings: Homo sapiens
[8] = system: forskolin-induced Cl− secretion in mouse intestinal sheets
[9] = system: CT-induced intestinal fluid secretion; test: Mouse closed-loop model of cholera induced by CT; assay type: in vivo; settings: mice, 30 mg/kg intraperitoneal, CT 1 µg/loop, 4 h, loop weight/length ratio
[10] = system: V. cholerae-induced intestinal fluid secretion; test: Mouse closed-loop model of cholera induced by V. cholerae; assay type: in vivo; settings: mice, 30 mg/kg intraperitoneal, 10^7 CFU/loop, 12 h, loop weight/length ratio
T84 cells = test: MTT assay of T84 cell viability; settings: 24-h exposure, 10 µM to 200 µM
[11] = system: Ca2+-activated Cl− channel (CaCC); test: Apical Cl− current analysis of ATP-stimulated CaCC in T84 cells
[12] = system: inwardly rectifying Cl− channel (IRC); test: Apical Cl− current analysis of forskolin-stimulated IRC in T84 cells
T84 cell monolayers = test: Barrier function assay (FITC-dextran flux) in T84 cell monolayers; settings: 24-h treatment, 3 mM
[13] = system: cholera toxin (CT)-induced intestinal fluid secretion; settings: mouse, in vivo; cited from earlier work
[14] = system: live V. cholerae-induced intestinal fluid secretion; settings: mice; ref [17], [38]; cited from earlier work
[15] = biological target: cAMP-activated basolateral K+ channels (KCNQ1/KCNE3) (Homo sapiens, UniProt P51787); settings: T84 cells, 30 µM
cAMP-activated basolateral K+ channels (KCNQ1/KCNE3), sequence (Q9Y6H6 whole entry): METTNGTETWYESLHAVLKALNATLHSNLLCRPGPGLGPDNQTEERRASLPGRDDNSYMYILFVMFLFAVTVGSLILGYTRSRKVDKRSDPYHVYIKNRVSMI
cAMP-activated basolateral K+ channels (KCNQ1/KCNE3), sequence (P51787 whole entry): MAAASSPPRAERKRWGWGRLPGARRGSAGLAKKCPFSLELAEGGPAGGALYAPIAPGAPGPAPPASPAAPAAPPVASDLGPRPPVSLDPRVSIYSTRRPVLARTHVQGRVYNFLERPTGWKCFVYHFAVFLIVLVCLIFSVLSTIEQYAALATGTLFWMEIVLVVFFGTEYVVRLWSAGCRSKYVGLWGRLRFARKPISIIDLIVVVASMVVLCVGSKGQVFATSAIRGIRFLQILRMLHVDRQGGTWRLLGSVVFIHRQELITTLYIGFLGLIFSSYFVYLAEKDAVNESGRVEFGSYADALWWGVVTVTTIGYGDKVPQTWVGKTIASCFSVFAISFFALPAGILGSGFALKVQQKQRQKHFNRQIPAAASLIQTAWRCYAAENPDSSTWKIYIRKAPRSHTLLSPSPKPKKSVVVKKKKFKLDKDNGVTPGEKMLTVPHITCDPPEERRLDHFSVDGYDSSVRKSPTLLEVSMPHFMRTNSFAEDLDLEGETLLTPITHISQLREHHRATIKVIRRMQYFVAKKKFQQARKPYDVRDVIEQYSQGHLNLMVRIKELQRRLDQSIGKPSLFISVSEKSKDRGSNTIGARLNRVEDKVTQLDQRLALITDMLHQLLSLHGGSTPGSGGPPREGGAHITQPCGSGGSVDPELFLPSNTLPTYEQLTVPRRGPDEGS

T1 sequence (P13569 whole entry): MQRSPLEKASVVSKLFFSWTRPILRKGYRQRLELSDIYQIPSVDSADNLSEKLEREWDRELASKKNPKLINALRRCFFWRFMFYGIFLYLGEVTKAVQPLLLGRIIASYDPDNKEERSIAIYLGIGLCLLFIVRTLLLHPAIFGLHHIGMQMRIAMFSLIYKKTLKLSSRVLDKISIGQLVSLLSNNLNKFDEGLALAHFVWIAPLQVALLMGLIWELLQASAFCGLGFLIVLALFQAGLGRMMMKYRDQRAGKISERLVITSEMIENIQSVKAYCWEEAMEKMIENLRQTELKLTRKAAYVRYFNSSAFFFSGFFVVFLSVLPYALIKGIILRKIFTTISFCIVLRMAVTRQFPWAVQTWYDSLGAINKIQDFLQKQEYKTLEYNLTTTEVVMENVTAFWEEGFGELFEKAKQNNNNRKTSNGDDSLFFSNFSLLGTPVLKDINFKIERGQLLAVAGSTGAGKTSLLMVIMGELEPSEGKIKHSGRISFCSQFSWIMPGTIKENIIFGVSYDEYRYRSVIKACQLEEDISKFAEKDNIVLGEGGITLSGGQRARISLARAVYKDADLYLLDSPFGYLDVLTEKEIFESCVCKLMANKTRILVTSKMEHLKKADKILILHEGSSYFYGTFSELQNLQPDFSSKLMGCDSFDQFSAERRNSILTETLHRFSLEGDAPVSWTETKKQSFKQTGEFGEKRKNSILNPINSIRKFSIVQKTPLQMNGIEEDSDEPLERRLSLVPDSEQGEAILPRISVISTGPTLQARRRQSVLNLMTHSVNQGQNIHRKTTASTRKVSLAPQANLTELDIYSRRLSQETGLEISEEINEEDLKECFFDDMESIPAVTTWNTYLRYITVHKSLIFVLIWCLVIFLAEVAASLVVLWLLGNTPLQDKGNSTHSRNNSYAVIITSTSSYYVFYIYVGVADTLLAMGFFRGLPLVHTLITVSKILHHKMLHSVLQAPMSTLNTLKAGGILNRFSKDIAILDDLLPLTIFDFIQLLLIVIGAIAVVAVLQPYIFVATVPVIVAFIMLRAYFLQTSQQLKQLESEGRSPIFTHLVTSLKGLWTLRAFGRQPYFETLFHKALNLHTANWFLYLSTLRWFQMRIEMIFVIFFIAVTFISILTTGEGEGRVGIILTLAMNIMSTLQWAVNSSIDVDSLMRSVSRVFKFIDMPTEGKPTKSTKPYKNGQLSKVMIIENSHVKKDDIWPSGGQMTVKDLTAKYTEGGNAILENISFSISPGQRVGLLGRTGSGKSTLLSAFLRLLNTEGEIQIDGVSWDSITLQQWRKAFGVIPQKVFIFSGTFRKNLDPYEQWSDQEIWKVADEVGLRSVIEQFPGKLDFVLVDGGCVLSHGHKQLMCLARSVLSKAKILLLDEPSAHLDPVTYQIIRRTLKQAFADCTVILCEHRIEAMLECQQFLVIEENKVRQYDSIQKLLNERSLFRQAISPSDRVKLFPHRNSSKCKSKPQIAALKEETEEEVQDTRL
Ca2+-activated basolateral K+ channels (KCa3.1), sequence (O15554 whole entry): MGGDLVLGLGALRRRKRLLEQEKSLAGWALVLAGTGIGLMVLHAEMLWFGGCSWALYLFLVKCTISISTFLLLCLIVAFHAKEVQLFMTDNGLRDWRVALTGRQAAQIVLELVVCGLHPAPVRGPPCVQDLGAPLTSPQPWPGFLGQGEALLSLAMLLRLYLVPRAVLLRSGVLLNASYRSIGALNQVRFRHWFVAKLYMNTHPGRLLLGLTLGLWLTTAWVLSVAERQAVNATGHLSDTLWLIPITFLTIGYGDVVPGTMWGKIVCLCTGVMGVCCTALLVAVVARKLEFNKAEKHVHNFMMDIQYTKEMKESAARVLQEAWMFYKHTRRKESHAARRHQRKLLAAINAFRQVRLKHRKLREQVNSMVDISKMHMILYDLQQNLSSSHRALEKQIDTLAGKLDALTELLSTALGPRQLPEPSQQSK

Structure (SMILES): O=C(O)Cc1ccccc1Nc1c(Cl)cccc1Cl [diclofenac]
- reversibility of inhibition of CFTR-mediated apical Cl− current (CFTR Cl− channel [1]; 20 µM, after removal from bathing solutions): reversible
- IC50 (CFTR Cl− channel [1]; CPT-cAMP 100 µM, read-out: IC50, inhibition of apical Cl− current induced by CPT-cAMP): 8.5 µM
- potency of inhibition of forskolin-induced Cl− current in the presence of IBMX (CFTR Cl− channel [1]; IBMX (PDE inhibitor) vs forskolin control): not different from that of control
- potency of inhibition of apical Cl− current after pretreatment with MK571, compound C or Na2VO3 (CFTR Cl− channel [1]; MRP4, AMPK or protein phosphatase inhibitor): did not alter the potency
- IC50 (CFTR Cl− channel [1]; apical Cl− current, regardless of the mechanisms of CFTR activation, read-out: IC50, inhibition of CFTR Cl− channel activity (summary)): ~10 µM and 8 to 10 µM
- IC50 (CFTR Cl− channel [1]; forskolin 20 µM, read-out: IC50, inhibition of apical Cl− current induced by forskolin): 8 µM
- inhibition of CFTR-mediated apical Cl− current at 100 µM (CFTR Cl− channel [1]; forskolin, CPT-cAMP or genistein, 100 µM): almost complete inhibition
- IC50 (CFTR Cl− channel [1]; genistein 20 µM, read-out: IC50, inhibition of apical Cl− current induced by genistein): 10 µM
- inhibition of CFTR-mediated apical Cl− current at 100 µM (CFTR Cl− channel [2]): near complete inhibition
- IC50 (CFTR Cl− channel [2]; 100 µM, read-out: IC50, inhibition of CFTR-mediated apical Cl− current induced by CPT-cAMP): ~10 µM
- effect on intracellular cAMP levels [3]: virtually no effect
- effect on ouabain-sensitive Isc (Na+-K+ ATPase activity) (Na+-K+ ATPase): no effect
- effect on Tl+ influx (NKCC1 activity) ([4]; pretreatment 200 µM): no effect
- effect on ATP-induced CaMKII phosphorylation [5]: unaffected
- inhibition of basolateral K+ current induced by ATP at 200 µM [6]: near complete inhibition
- IC50 ([7]; T84, read-out: IC50, inhibition of cholera toxin (CT)-induced Cl− secretion): ~10 µM
- inhibition at 100 µM ([7]; T84, read-out: inhibition of CT-induced Cl− secretion at 100 µM): > 95%
- effect on forskolin-induced Cl− secretion in mouse intestinal sheets [8]: inhibited
- inhibition of CT-induced intestinal fluid secretion [9]: ~70%
- inhibition of V. cholerae-induced intestinal fluid secretion [10]: ~70%
- effect on T84 cell viability (MTT) (T84 cells): did not affect
- inhibition of CaCC-mediated apical Cl− current at 20 µM ([11]; 20 µM): almost complete inhibition
- IC50 ([11]; read-out: IC50, inhibition of CaCC-mediated apical Cl− current, CFTRinh-172 pretreatment, ATP 100 µM): ~1000 nM
- inhibition of IRC-mediated apical Cl− current at 100 µM ([12]; 100 µM): near complete inhibition
- IC50 ([12]; read-out: IC50, inhibition of IRC-mediated apical Cl− current, CFTRinh-172 pretreatment, forskolin 20 µM): ~5 µM

Structure (SMILES): O=C(O)CN(CCOCCOCCN(CC(=O)O)CC(=O)O)CC(=O)O [EGTA]
- effect on FITC-dextran flux, positive control (T84 cell monolayers): markedly increased

Structure (SMILES): CCCCNc1cc(C(=O)O)cc(S(N)(=O)=O)c1Oc1ccccc1 [bumetanide]
- effect on Tl+ influx (NKCC1 activity), positive control ([4]; 100 µM): completely prevented

Structure (SMILES): O=C(O)c1ccc(/C=C2\SC(=S)N(c3cccc(C(F)(F)F)c3)C2=O)cc1 [CFTRinh-172]
- effect on recovered apical Cl− current after washout (CFTR Cl− channel [1]; forskolin, CFTRinh-172 5 µM apical): inhibited
- reduction of cholera toxin (CT)-induced intestinal fluid secretion [13]: > 90%
- reduction of live V. cholerae-induced intestinal fluid secretion [14]: > 90%

Structure (SMILES): Clc1ccccc1C(c1ccccc1)(c1ccccc1)n1ccnc1 [clotrimazole]
- effect on CPT-cAMP-induced basolateral K+ current [15]: markedly inhibited
